Results taken from DBAASP.
≈ marks a conversion by molar mass, not a printed value.

What was measured:
Assay in all cases: ≥ marks a high value that may be exact or a test limit, other limits are often not marked, values filed in µg/mL are converted to µM
Escherichia coli JW0013 = test system: Escherichia coli JW0013
Leuconostoc lactis = test system: Leuconostoc lactis
Candida albicans = test system: Candida albicans
Escherichia coli MG1655 = test system: Escherichia coli MG1655
[1] = test system: Pseudomonas aeruginosa PAO1
[2] = test system: Staphylococcus aureus ATCC 25923
Bacillus cereus = test system: Bacillus cereus
Listeria innocua = test system: Listeria innocua
Micrococcus luteus = test system: Micrococcus luteus
[3] = test system: Staphylococcus aureus ATCC 29213
[4] = test system: Staphylococcus epidermidis
Streptococcus uberis = test system: Streptococcus uberis
[5] = test system: Klebsiella pneumoniae ATCC 700603
[6] = test system: Pseudomonas aeruginosa ATCC 10145
[7] = test system: Escherichia coli ATCC 25726

CC[C@H](C)[C@H](NC(=O)[C@@H]1CCCN1C(=O)[C@H](CCCN=C(N)N)NC(=O)[C@@H]1CCCN1C(=O)[C@@H]1CCCN1C(=O)[C@@H](NC(=O)[C@@H]1CCCN1C(=O)[C@H](CCCN=C(N)N)NC(=O)[C@@H]1CCCN1C(=O)[C@H](CCCCN)NC(=O)[C@H](Cc1ccc(O)cc1)NC(=O)[C@H](CO)NC(=O)CNC(=O)[C@H](CCCCN)NC(=O)[C@H](CC(=O)O)NC(=O)[C@@H](N)C(C)C)[C@@H](C)O)C(=O)N[C@@H](Cc1ccc(O)cc1)C(=O)N[C@@H](CC(N)=O)C(=O)N[C@@H](CCCN=C(N)N)C(=O)N[C@@H](CC(N)=O)C(=O)O [VDKGSYKPRPTPPRPIYNRN]
MIC (Escherichia coli JW0013): 0.3 µM (≈ 0.707 µg/mL)

CC[C@H](C)[C@H](NC(=O)[C@H](CCCN=C(N)N)NC(=O)[C@H](CCCN=C(N)N)NC(=O)[C@@H]1CCCN1C(=O)[C@@H]1CCCN1C(=O)[C@H](CCCN=C(N)N)NC(=O)[C@@H]1CCCN1C(=O)[C@H](CCCN=C(N)N)NC(=O)[C@@H]1CCCN1C(=O)[C@H](CC(C)C)NC(=O)[C@H](Cc1ccc(O)cc1)NC(=O)[C@@H]1CCCN1C(=O)[C@@H]1CCCN1C(=O)[C@H](CCCCN)NC(=O)[C@H](CC(=O)O)NC(=O)[C@@H](N)CC(C)C)C(=O)N[C@@H](Cc1ccc(O)cc1)C(=O)N[C@@H](CC(N)=O)C(=O)N[C@@H](CCCN=C(N)N)C(N)=O [LDKPPYLPRPRPPRRIYNR]
MIC (Escherichia coli JW0013): 2 µM (≈ 4.8 µg/mL)

CC[C@H](C)[C@H](NC(=O)[C@H](CCCN=C(N)N)NC(=O)[C@H](CCCN=C(N)N)NC(=O)[C@@H]1CCCN1C(=O)[C@@H]1CCCN1C(=O)[C@H](CCCN=C(N)N)NC(=O)[C@H](CCCN=C(N)N)NC(=O)[C@H](CCCN=C(N)N)NC(=O)[C@@H]1CCCN1C(=O)[C@H](CC(C)C)NC(=O)[C@H](Cc1ccc(O)cc1)NC(=O)[C@@H]1CCCN1C(=O)[C@H](CCCN=C(N)N)NC(=O)[C@H](CCCCN)NC(=O)[C@H](CC(=O)O)NC(=O)[C@@H](N)C(C)C)C(=O)N[C@@H](Cc1ccc(O)cc1)C(=O)N[C@@H](CC(N)=O)C(=O)N[C@@H](CCCN=C(N)N)C(N)=O [VDKRPYLPRRRPPRRIYNR]
MIC (Escherichia coli JW0013): 0.638 µM (≈ 1.6 µg/mL)

CC[C@H](C)[C@H](N)C(=O)N[C@H](C(=O)N[C@@H](CCC(=O)O)C(=O)N[C@@H](CCCCN)C(=O)N[C@@H](CC(C)C)C(=O)N[C@H](C(=O)N[C@@H](CC(N)=O)C(=O)N[C@H](C(=O)N[C@@H](C)C(=O)N[C@@H](CC(C)C)C(=O)NCC(=O)N[C@@H](CC(C)C)C(=O)N[C@@H](CC(C)C)C(=O)N[C@@H](CO)C(=O)NCC(=O)N[C@@H](CC(C)C)C(N)=O)[C@@H](C)O)C(C)C)[C@@H](C)CC [IIEKLVNTALGLLSGL]
MIC (Leuconostoc lactis): 25 µM (≈ 41.3 µg/mL)

CC[C@H](C)[C@H](NC(=O)[C@H](CCCN=C(N)N)NC(=O)[C@H](CCCN=C(N)N)NC(=O)[C@@H]1CCCN1C(=O)[C@@H]1CCCN1C(=O)[C@H](CCCN=C(N)N)NC(=O)[C@@H]1CCCN1C(=O)[C@H](CCCN=C(N)N)NC(=O)[C@@H]1CCCN1C(=O)[C@H](CC(C)C)NC(=O)[C@H](Cc1ccc(O)cc1)NC(=O)CNC(=O)[C@@H]1CCCN1C(=O)[C@H](CCCCN)NC(=O)[C@H](CC(=O)O)NC(=O)[C@@H](N)C(C)C)C(=O)N[C@@H](Cc1ccc(O)cc1)C(=O)N[C@@H](CC(N)=O)C(=O)N[C@@H](CCCN=C(N)N)C(N)=O [VDKPGYLPRPRPPRRIYNR]
MIC (Escherichia coli JW0013): 2.04 µM (≈ 4.8 µg/mL)

CSCC[C@H](NC(=O)[C@@H](NC(=O)[C@@H](N)CCCCN)C(C)C)C(=O)N[C@@H](CCCN=C(N)N)C(=O)N[C@@H](CCC(=O)O)C(=O)N[C@H](C(=O)N[C@@H](CC(C)C)C(=O)NCC(=O)N[C@@H](Cc1ccc(O)cc1)C(=O)N[C@@H](CCC(=O)O)C(=O)N[C@@H](CCCN=C(N)N)C(=O)N[C@@H](CC(N)=O)C(=O)N[C@@H](CO)C(=O)N[C@@H](Cc1ccc(O)cc1)C(=O)N[C@@H](CCCCN)C(=O)N[C@@H](CCCCN)C(=O)N[C@@H](Cc1ccccc1)C(=O)N[C@@H](Cc1ccccc1)C(=O)N[C@@H](CC(C)C)C(=O)N[C@@H](CCCN=C(N)N)C(N)=O)C(C)C [KVMREVLGYERNSYKKFFLR]
MIC (Candida albicans): 128 µM (≈ 328 µg/mL)
MIC (Escherichia coli MG1655): ≥ 128 µM
MIC [1]: > 128 µM
MIC [2]: > 128 µM

CC[C@H](C)[C@H](NC(=O)[C@H](CCCN=C(N)N)NC(=O)[C@H](CCCN=C(N)N)NC(=O)[C@@H]1CCCN1C(=O)[C@@H]1CCCN1C(=O)[C@H](CCCN=C(N)N)NC(=O)[C@@H]1CCCN1C(=O)[C@H](CCCN=C(N)N)NC(=O)[C@@H]1CCCN1C(=O)[C@H](CC(C)C)NC(=O)[C@H](Cc1ccc(O)cc1)NC(=O)[C@@H]1CCCN1C(=O)[C@@H]1CCCN1C(=O)[C@H](CCCCN)NC(=O)[C@H](Cc1c[nH]c2ccccc12)NC(=O)[C@@H](N)C(C)C)C(=O)N[C@@H](Cc1ccc(O)cc1)C(=O)N[C@@H](CC(N)=O)C(=O)N[C@@H](CCCN=C(N)N)C(N)=O [VWKPPYLPRPRPPRRIYNR]
MIC (Escherichia coli JW0013): 1.95 µM (≈ 4.8 µg/mL)

CC[C@H](C)[C@H](NC(=O)CNC(=O)[C@H](Cc1ccccc1)NC(=O)[C@H](CC(C)C)NC(=O)CN)C(=O)N[C@@H](CC(C)C)C(=O)NCC(=O)N[C@@H](CO)C(=O)N[C@H](C(=O)N[C@@H](C)C(=O)N[C@@H](CCCCN)C(=O)N[C@@H](Cc1cnc[nH]1)C(=O)N[C@H](C(=O)N[C@@H](CC(C)C)C(=O)N1CCC[C@H]1C(=O)N[C@@H](Cc1cnc[nH]1)C(=O)N[C@H](C(=O)N[C@H](C(=O)N1CCC[C@H]1C(=O)N[C@H](C(=O)N[C@H](C(=O)N[C@@H](C)C(=O)N[C@@H](CCC(=O)O)C(=O)N[C@@H](Cc1cnc[nH]1)C(=O)N[C@@H](CC(C)C)C(N)=O)C(C)C)C(C)C)[C@@H](C)CC)C(C)C)C(C)C)C(C)C [GLFGILGSVAKHVLPHVIPVVAEHL]
MIC (Bacillus cereus): ≥ 38.4 µM
MIC (Leuconostoc lactis): 9.6 µM (≈ 25 µg/mL)
MIC (Listeria innocua): 9.6 µM (≈ 25 µg/mL)
MIC (Micrococcus luteus): 7.68 µM (≈ 20 µg/mL)
MIC [2]: 19.2 µM (≈ 50 µg/mL)
MIC [3]: 9.6 µM (≈ 25 µg/mL)
MIC [4]: 9.6 µM (≈ 25 µg/mL)
MIC (Streptococcus uberis): 19.2 µM (≈ 50 µg/mL)

CC(C)C[C@H](NC(=O)[C@H](Cc1ccc(O)cc1)NC(=O)[C@H](Cc1cnc[nH]1)NC(=O)[C@H](CCCCN)NC(=O)[C@H](CC(C)C)NC(=O)[C@H](C)NC(=O)[C@H](CC(C)C)NC(=O)[C@H](CCCCN)NC(=O)CNC(=O)[C@@H](NC(=O)[C@@H](NC(=O)[C@H](CCCCN)NC(=O)[C@@H](NC(=O)[C@H](CCC(=O)O)NC(=O)[C@H](C)NC(=O)[C@H](CCCCN)NC(=O)[C@H](CCCCN)NC(=O)[C@H](CC(C)C)NC(=O)[C@H](CC(C)C)NC(=O)[C@@H](NC(=O)[C@H](CCCN=C(N)N)NC(=O)[C@H](Cc1c[nH]c2ccccc12)NC(=O)CN)[C@@H](C)O)C(C)C)[C@@H](C)O)C(C)C)C(=O)O [GWRTLLKKAEVKTVGKLALKHYL]
MIC (Escherichia coli MG1655): 8.3 µM (≈ 22 µg/mL)
MIC [5]: 4.15 µM (≈ 11 µg/mL)
MIC [6]: 0.25 µM (≈ 0.663 µg/mL)
MIC [2]: 4.15 µM (≈ 11 µg/mL)

CC[C@H](C)[C@H](NC(=O)[C@H](C)NC(=O)CN)C(=O)N[C@@H](CCCCN)C(=O)N[C@@H](CC(=O)O)C(=O)N[C@@H](C)C(=O)N[C@@H](CC(C)C)C(=O)N[C@@H](CCCCN)C(=O)NCC(=O)N[C@@H](C)C(=O)N[C@@H](C)C(=O)N[C@@H](CCCCN)C(=O)N[C@H](C(=O)N[C@H](C(=O)N[C@@H](C)C(=O)N[C@H](C(=O)N[C@@H](CCC(=O)O)C(=O)N[C@@H](CC(C)C)C(=O)N[C@@H](CC(C)C)C(=O)N[C@@H](CCCCN)C(=O)N[C@@H](CCCCN)C(=O)N[C@@H](C)C(=O)N[C@@H](CCC(N)=O)C(=O)N[C@H]1CSSC[C@@H](C(=O)O)NC(=O)[C@H]([C@@H](C)O)NC(=O)[C@H](CCCCN)NC(=O)[C@H](CCC(=O)O)NC(=O)[C@H](CC(C)C)NC(=O)[C@H](CCCCN)NC1=O)C(C)C)C(C)C)[C@@H](C)O [GAIKDALKGAAKTVAVELLKKAQCKLEKTC]
MIC [7]: 20 µM (≈ 62.5 µg/mL)
MIC [2]: 20 µM (≈ 62.5 µg/mL)
